From US9957273B2, “5-substituted 7- [4-(2-pyridyl)phenylmethylamino] -3-isopropylpyrazolo4,3-D]pyrimidine derivatives, use thereof as medicaments, and pharmaceutical compositions” (USTAV EXPERIMENTALNI BOTANIKY AV CR, V.V.I., priority 2015, dated 2018)

Legend:
CDK5/p35 = molecular target: T1, CDK5/p35 (Homo sapiens, UniProt Q00535); assay: CDK5/p35 kinase inhibition (33P-ATP, histone H1); assay type: biochemical; conditions: 0.15 μM ATP
T1 construct: purchased ProQinase GmbH
Description: CDK2/Cyclin E kinase was produced in Sf9 insect cells via baculoviral infection and purified on a NiNTA column (Qiagen). […] CDK5/p35 was purchased from ProQinase GmbH.
(§1) The reactions were stopped by adding 5 μL of 3% aq H3PO4. Aliquots were spotted onto P-81 phosphocellulose (Whatman), washed 3× with 0.5% aq H3PO4 and finally air-dried.

[1] = test system: HL60 (human promyelocytic leukaemia); assay: MTT cytotoxicity assay, leukemic cell line HL60; assay type: cell-based; conditions: Homo sapiens, HL-60, 72 h, three days
Text: (§2) Cytotoxicity of the compounds is the major property determining their antileukemic efficacy in vivo. One of the parameters used, as the basis for cytotoxicity assays, is the metabolic activity of viable cells. For example, a microtiter assay, which uses (3-(4,5-dimethylthiazol-2-yl)-2,5-diphenyltetrazolium bromide (MTT), is widely used to quantitate cell proliferation and cytotoxicity. This assay is widely used in drug screening programs and in chemosensitivity testing. Because only metabolically active living cells reduce MTT to correspond purple formazan dye, these assays detect viable cells exclusively. The quantity of reduced MTT corresponds to the number of vital cells in the culture.
(§3) The compounds were assayed using the following leukemic cell lines: K562 (human chronic myelogenous leukaemia), HL60 (human promyelocytic leukaemia), CEM (human lymphoblastoid leukaemia), THP1 (human monocytic cell line), MV4; 11 (acute myelocytic leukemia). All cell lines were grown in RPMI medium supplemented with fetal bovine serum and L-glutamine and maintained at 37° C. in a humidified atmosphere with 5% CO2. For cytotoxicity assays, 2000-5000 cells were seeded into each well of 96 well plate, allowed to stabilize for at least 8 h and then tested compounds were added at various concentrations ranging from 100 to 0.01 μM in triplicates. After three days, MTT solution (5 mg/ml; Sigma, St. Louis, USA) was added to cells and medium was replaced with DMSO after five hours. The absorbance was measured at 620 nm by employing a microplate reader. MTT assays were repeated 3 times for each drug application and untreated cells were used as reference.

[2] = test system: MV4;11 (acute myelocytic leukemia); assay: MTT cytotoxicity assay, leukemic cell line MV4;11; assay type: cell-based; conditions: Homo sapiens, MV4-11, 72 h, three days
Text: as §2, §3

CDK2/Cyclin E = molecular target: T2, CDK2/Cyclin E (Homo sapiens, UniProt P24941); assay: CDK2/Cyclin E kinase inhibition (33P-ATP, histone H1); assay type: biochemical; conditions: 15 μM ATP
T2 construct: made in house; host or cells: Sf9 insect cells (baculovirus)
Description: CDK2/Cyclin E kinase was produced in Sf9 insect cells via baculoviral infection and purified on a NiNTA column (Qiagen). The kinase reactions were assayed with 1 mg/mL histone H1 in the presence of 15 μM ATP, 0.05 μCi [γ-^33P]ATP and of the test compound in a final volume of 10 μL, all in a reaction buffer (60 mM HEPES-NaOH, pH 7.5, 3 mM MgCl2, 3 mM MnCl2, 3 μM Na-orthovanadate, 1.2 mM DTT, 2.5 μg/50 μl PEG20.000). CDK5/p35 was purchased from ProQinase GmbH. The kinase reactions were assayed with 1 mg/mL histone H1 in the presence of 0.15 μM ATP, 0.05 μCi [γ-^33P]ATP and of the test compound in a final volume of 10 μL, all in a reaction buffer (60 mM HEPES-NaOH, pH 7.5, 3 mM MgCl2, 3 mM MnCl2, 3 μM Na-orthovanadate, 1.2 mM DTT, 2.5 μg/50 μl PEG20.000).
as §1

[3] = test system: THP1 (human monocytic cell line); assay: MTT cytotoxicity assay, leukemic cell line THP1; assay type: cell-based; conditions: Homo sapiens, THP-1, 72 h, three days
Text: as §2, §3

[4] = test system: CEM (human lymphoblastoid leukaemia); assay: MTT cytotoxicity assay, leukemic cell line CEM; assay type: cell-based; conditions: Homo sapiens, 72 h, three days
Text: as §2, §3

[5] = test system: K562 (human chronic myelogenous leukaemia); assay: MTT cytotoxicity assay, leukemic cell line K562; assay type: cell-based; conditions: Homo sapiens, K562, 72 h, three days
Text: as §2, §3

HCT116 (colon carcinoma) = assay: MTT cytotoxicity assay, solid cancer cell line HCT116; assay type: cell-based; conditions: Homo sapiens, HCT-116, 72 h, three days
Description: as §3, with “following” for “following leukemic”, “G361 (malignant melanoma), MCF7 (breast adenocarcinoma), PLC/PRF/5 (liver hepatoma), PANC-1 (pancreatic carcinoma) and HCT116 (colon carcinoma).” for “K562 (human chronic myelogenous leukaemia), HL60 (human promyelocytic leukaemia), CEM (human lymphoblastoid leukaemia), THP1 (human monocytic cell line), MV4; 11 (acute myelocytic leukemia).”, “DMEM” for “RPMI”, “4000-10000” for “2000-5000”, “of a” for “of”, “16” for “8”

[6] = test system: MCF7 (breast adenocarcinoma); assay: MTT cytotoxicity assay, solid cancer cell line MCF7; assay type: cell-based; conditions: Homo sapiens, MCF7, 72 h, three days
Description: as §3, with “following” for “following leukemic”, “G361 (malignant melanoma), MCF7 (breast adenocarcinoma), PLC/PRF/5 (liver hepatoma), PANC-1 (pancreatic carcinoma) and HCT116 (colon carcinoma).” for “K562 (human chronic myelogenous leukaemia), HL60 (human promyelocytic leukaemia), CEM (human lymphoblastoid leukaemia), THP1 (human monocytic cell line), MV4; 11 (acute myelocytic leukemia).”, “DMEM” for “RPMI”, “4000-10000” for “2000-5000”, “of a” for “of”, “16” for “8”

[7] = test system: HUVECs (human umbilical vein endothelial cells); assay: HUVEC proliferation assay (crystal violet); assay type: cell-based; conditions: Homo sapiens, HUVEC, 72 h, read-out: Inhibition of proliferation (EC50)
Description: (§4) To verify that novel compounds have anti-vascularisation properties, we analyzed their influence on the proliferation and migration of HUVECs. HUVECs (human umbilical vein endothelial cells) were purchased from Promocell (Heidelberg, Germany) and cultured in endothelial cell growth medium (ECGM, Promocell, Heidelberg, Germany) containing 10% FCS (Biochrom, Berlin, Germany). Experiments were performed using cells at passage 3.
For proliferation assay, 1.5×10^3 HUVECs were cultured for 24 h. Afterwards, cells were either left untreated or treated with novel compounds for 72 h. Proliferation assay was performed using crystal violet as described previously (Koltermann et al. 2007, Cell Mol. Life Sci. 64:1715-1722).

[8] = test system: PANC-1 (pancreatic carcinoma); assay: MTT cytotoxicity assay, solid cancer cell line PANC-1; assay type: cell-based; conditions: Homo sapiens, PANC-1, 72 h, three days
Description: as §3, with “following” for “following leukemic”, “G361 (malignant melanoma), MCF7 (breast adenocarcinoma), PLC/PRF/5 (liver hepatoma), PANC-1 (pancreatic carcinoma) and HCT116 (colon carcinoma).” for “K562 (human chronic myelogenous leukaemia), HL60 (human promyelocytic leukaemia), CEM (human lymphoblastoid leukaemia), THP1 (human monocytic cell line), MV4; 11 (acute myelocytic leukemia).”, “DMEM” for “RPMI”, “4000-10000” for “2000-5000”, “of a” for “of”, “16” for “8”

[9] = test system: G361 (malignant melanoma); assay: MTT cytotoxicity assay, solid cancer cell line G361; assay type: cell-based; conditions: Homo sapiens, G-361, 72 h, three days
Description: as §3, with “following” for “following leukemic”, “G361 (malignant melanoma), MCF7 (breast adenocarcinoma), PLC/PRF/5 (liver hepatoma), PANC-1 (pancreatic carcinoma) and HCT116 (colon carcinoma).” for “K562 (human chronic myelogenous leukaemia), HL60 (human promyelocytic leukaemia), CEM (human lymphoblastoid leukaemia), THP1 (human monocytic cell line), MV4; 11 (acute myelocytic leukemia).”, “DMEM” for “RPMI”, “4000-10000” for “2000-5000”, “of a” for “of”, “16” for “8”

[10] = test system: PLC/PRF/5 (liver hepatoma); assay: MTT cytotoxicity assay, solid cancer cell line PLC/PRF/5; assay type: cell-based; conditions: Homo sapiens, PLC-PRF-5, 72 h, three days
Description: as §3, with “following” for “following leukemic”, “G361 (malignant melanoma), MCF7 (breast adenocarcinoma), PLC/PRF/5 (liver hepatoma), PANC-1 (pancreatic carcinoma) and HCT116 (colon carcinoma).” for “K562 (human chronic myelogenous leukaemia), HL60 (human promyelocytic leukaemia), CEM (human lymphoblastoid leukaemia), THP1 (human monocytic cell line), MV4; 11 (acute myelocytic leukemia).”, “DMEM” for “RPMI”, “4000-10000” for “2000-5000”, “of a” for “of”, “16” for “8”

[11] = test system: HUVECs (human umbilical vein endothelial cells); assay: HUVEC migration (scratch) assay; assay type: cell-based; conditions: 16 h, read-out: Inhibition of migration (EC50)
Description: as §4
For migration assay, confluent HUVECs were scratched with a pipette tip and immediately treated with either starvation medium M199 (serum-free, negative control; PAN Biotech) or full endothelial cell growth medium (positive control). After 16 h, cells were fixed with 3% formaldehyde and images were taken using the TILLvisON system (Lochham, Germany) connected to an Axiovert 200 microscope (Zeiss, Germany). Evaluation of pictures was made by S.CO LifeScience (Garching, Germany). Migration was quantified as the ratio of the area covered with cells and the area of the cell free wound.

T1 sequence (Q00535 whole entry): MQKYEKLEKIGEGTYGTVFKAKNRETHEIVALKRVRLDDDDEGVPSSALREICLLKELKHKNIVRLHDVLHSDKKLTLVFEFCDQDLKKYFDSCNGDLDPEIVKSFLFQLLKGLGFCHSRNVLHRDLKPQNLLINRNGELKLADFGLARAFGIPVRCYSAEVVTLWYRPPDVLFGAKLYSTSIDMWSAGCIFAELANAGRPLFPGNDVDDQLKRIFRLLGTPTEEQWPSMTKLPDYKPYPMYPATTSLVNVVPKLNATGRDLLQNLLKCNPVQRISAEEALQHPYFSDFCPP
T1 sequence (Q15078 whole entry partner): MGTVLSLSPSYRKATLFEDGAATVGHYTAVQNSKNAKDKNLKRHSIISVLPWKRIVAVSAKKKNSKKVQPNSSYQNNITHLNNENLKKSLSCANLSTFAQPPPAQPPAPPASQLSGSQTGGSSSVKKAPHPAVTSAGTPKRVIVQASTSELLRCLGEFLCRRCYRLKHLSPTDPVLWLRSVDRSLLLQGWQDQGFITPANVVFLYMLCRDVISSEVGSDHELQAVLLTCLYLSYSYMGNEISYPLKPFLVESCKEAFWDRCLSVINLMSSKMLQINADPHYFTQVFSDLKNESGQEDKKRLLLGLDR

| Compound | IC50 (CDK5/p35) [µM] | IC50 [1] [µM] | IC50 [2] [µM] | IC50 (CDK2/Cyclin E) [µM] | IC50 [3] [µM] | IC50 [4] [µM] | IC50 [5] [µM] | IC50 (HCT116 (colon carcinoma)) [µM] | IC50 [6] [µM] | EC50 [7] [nM] | IC50 [8] [µM] | IC50 [9] [µM] | IC50 [10] [µM] | EC50 [11] [nM] |
| --- | --- | --- | --- | --- | --- | --- | --- | --- | --- | --- | --- | --- | --- | --- |
| CC(C)c1n[nH]c2c(NCc3ccc(-c4ccccn4)cc3)nc(NCCN)nc12 [Compound 40] | 0.038 | 0.22 | 0.25 | 0.027 | 0.11 | 0.14 | 0.34 |  |  |  |  |  |  |  |
| CC[C@H](CO)Nc1nc(NCc2ccc(-c3ccccn3)cc2)c2n[nH]c(C(C)C)c2n1 [Compound 83] |  | 0.02 | 0.07 | 0.054 | 0.01 | 0.06 |  | 0.03 | 0.05 | 34 | 0.02 | 0.04 | 0.02 | 39 |
| CC(C)c1n[nH]c2c(NCc3ccc(-c4ccccn4)cc3)nc(N[C@@H]3CCCC[C@H]3N)nc12 (relative stereo) [Compound 64] | 0.088 | 0.09 | 0.09 | 0.046 | 0.04 | 0.05 | 0.1 | 0.34 | 0.22 |  | 0.08 | 0.15 | 0.14 |  |
| CC(C)c1n[nH]c2c(NCc3ccc(-c4ccccn4)cc3)nc(S(C)(=O)=O)nc12 [Compound 7] | 0.165 | 0.52 | 1.69 |  | 1.64 | 0.93 | 0.64 | 1.97 | 0.46 | 648 | 1.56 | 0.43 | 0.21 | 550 |
| CC(C)c1[nH]nc2c(NCc3ccc(-c4ccccn4)cc3)nc(NCCN3CCC3)nc12 [Compound 54] | 0.204 | 0.29 | 0.24 | 0.322 | 0.37 | 0.24 | 0.36 |  |  |  |  |  |  |  |
| CC(C)c1[nH]nc2c(NCc3ccc(-c4ccccn4)cc3)nc(NCCCO)nc12 [Compound 29] | 0.0149 | 0.18 | 0.27 | 0.039 | 0.14 | 0.09 | 0.1 |  |  |  |  |  |  |  |
| CC(C)c1[nH]nc2c(NCc3ccc(-c4ccccn4)cc3)nc(NCCN3CCCC3)nc12 [Compound 55] | 0.182 |  |  | 0.64 |  |  |  |  |  |  |  |  |  |  |
| CC(C)c1[nH]nc2c(NCc3ccc(-c4ccccn4)cc3)nc(N3CCCCC3)nc12 [Compound 14] | 0.18 |  |  | 0.042 |  |  |  |  |  |  |  |  |  |  |
| CC(C)c1[nH]nc2c(NCc3ccc(-c4ccccn4)cc3)nc(N3CCNCC3)nc12 [Compound 13] | 0.119 | 0.02 | 0.04 |  | 0.03 | 0.01 | 0.02 | 0.03 | 0.02 | 9 | 0.06 | 0.02 | 0.05 | 26 |
| CC(C)c1[nH]nc2c(NCc3ccc(-c4ccccn4)cc3)nc(N3CCOCC3)nc12 [Compound 9] | 0.005 | 0.1 | 0.36 |  | 0.18 | 0.07 | 0.11 | 0.42 | 0.16 | 136 | 0.3 | 0.25 | 0.21 |  |
| CC(C)c1[nH]nc2c(NCc3ccc(-c4ccccn4)cc3)nc(N3CCN(CCO)CC3)nc12 [Compound 17] | 0.422 | 0.26 | 0.37 |  | 0.3 | 0.11 | 0.15 | 0.4 | 0.19 | 95 | 0.34 | 0.24 | 0.73 |  |
